In patent US9937210B2, “Method for isolating fraction having anti-inflammatory or osteoarthritis-inhibiting effects by using oyster shell chips” (Seojin Biotech Co., Ltd., priority 2012, dated 2018):
“And” between values parts separate entries of the source, which are not always exact repeats. Equal entries are not always repeated.

What was measured:
[1] = test system: animal models of osteoarthritis C57BL/6J mouse; assay: Osteoarthritis index (histopathology, method of Rudolphi) in papain-induced osteoarthritis; format: in vivo
Protocol: (§1) 40 eight week-old animal models of osteoarthritis C57BL/6J mouse were purchased from Central Laboratory Animal Inc. (Seoul, Korea), adapted with a general diet for 1 week and then used in the experiments. The temperature and humidity of the breeding room were maintained at 20±2° C., 50±10%, the lightening conditions were such that the light was turned on and off every 12 hours and the light was kept on from 07:00˜19:00. During the experiment, the feedstuff (Orient Bio, Seoul, Korea) and water were to be freely taken.
(§2) The osteoarthritis was induced by the method given in the test guidelines of the effect of the herbal preparation presented by the Korean Food and Drug Administration. Papain (type IV, double crystallized, 15 units/mg, Sigma, USA) was adjusted to a concentration of 1.0% (w/v) in which 0.03 ML-cystein HCl (Sigma, USA) was supplemented for the activation of papain and then passed through the patellar ligament. […] 6 was administered in the right knee joint to induce osteoarthritis.
The experiment animals were adapted in a lab environment for 1 week and then the body weight was measured. Eight animals were assigned to each group to have even body weight. In the normal group, the physiological saline 6 was injected in the right knee joint and then the physiological saline 0.2 ml was orally administered once a day for 20 days. In the treated groups, i.e., a control group, a drug-administered group and a fraction 3-administered group, papain 6 was injected in the right knee joint to induce osteoarthritis. The physiological saline in the control group, Diclofenac sodium (DS, 2 mg/kg/bw) in the drug-administered group, and 100 mg/kg/bw {below, called “fraction 3 (100)”} and 200 mg/kg/bw {below, called “fraction 3 (200)”} in the fraction 3-administered group of Example 2 were orally administered once daily at a predetermined time for 20 days.
All subjects were lightly anesthetized with ether at the experiment end day to take a heart blood sample. The blood was centrifuged to isolate a serum. Immediately after taking a heart blood sample, the right hip joint and ankle joint were isolated and removed so as not to damage the knee joint. The tibial of the right knee joint was fixed in 10% neutral formalin solution for 24 hours and then used for the visual observation of the joints.
The osteoarthritis index for the observed histopathological lesions in the articular cartilage and synovial membrane was digitalized in accordance with a method of Rudolphi, at al. and is shown in Table 2 below.

IL-1β = assay: Interleukin-1β content in blood, ELISA, papain-induced arthritis; format: in vivo, mouse; details: DS 2 mg/kg/bw; fraction 3 100 and 200 mg/kg/bw; oral once daily 20 days; p<0.05
Protocol: The experiment animals were adapted in a lab environment for 1 week and then the body weight was measured. Eight animals were assigned to each group to have even body weight. In the normal group, the physiological saline 6 was injected in the right knee joint and then the physiological saline 0.2 ml was orally administered once a day for 20 days. In the treated groups, i.e., a control group, a drug-administered group and a fraction 3-administered group, papain 6 was injected in the right knee joint to induce osteoarthritis. The physiological saline in the control group, Diclofenac sodium (DS, 2 mg/kg/bw) in the drug-administered group, and 100 mg/kg/bw {below, called “fraction 3 (100)”} and 200 mg/kg/bw {below, called “fraction 3 (200)”} in the fraction 3-administered group of Example 2 were orally administered once daily at a predetermined time for 20 days. All subjects were lightly anesthetized with ether at the experiment end day to take a heart blood sample. The blood was centrifuged to isolate a serum. […] The contents of tumor necrosis factor-α (TNF-α), interleukin-1β (IL-1β) and interleukin-6 (IL-6) were measured using enzyme-linked immunosorbent assay (ELISA) kit, respectively. The effect of fraction 3 of the inflammatory cytokine IL-1β produced in large quantities in animals where arthritis was induced by injection of papain was measured by ELISA method.

IL-6 = assay: Interleukin-6 content in blood, ELISA, papain-induced arthritis; format: in vivo, mouse; details: DS 2 mg/kg/bw; fraction 3 100 and 200 mg/kg/bw; oral once daily 20 days
Protocol: The experiment animals were adapted in a lab environment for 1 week and then the body weight was measured. Eight animals were assigned to each group to have even body weight. In the normal group, the physiological saline 6 was injected in the right knee joint and then the physiological saline 0.2 ml was orally administered once a day for 20 days. In the treated groups, i.e., a control group, a drug-administered group and a fraction 3-administered group, papain 6 was injected in the right knee joint to induce osteoarthritis. The physiological saline in the control group, Diclofenac sodium (DS, 2 mg/kg/bw) in the drug-administered group, and 100 mg/kg/bw {below, called “fraction 3 (100)”} and 200 mg/kg/bw {below, called “fraction 3 (200)”} in the fraction 3-administered group of Example 2 were orally administered once daily at a predetermined time for 20 days. All subjects were lightly anesthetized with ether at the experiment end day to take a heart blood sample. The blood was centrifuged to isolate a serum. Immediately after taking a heart blood sample, the right hip joint and ankle joint were isolated and removed so as not to damage the knee joint. […] The contents of tumor necrosis factor-α (TNF-α), interleukin-1β (IL-1β) and interleukin-6 (IL-6) were measured using enzyme-linked immunosorbent assay (ELISA) kit, respectively.

TNF-α = TNF-α content in blood, ELISA, papain-induced arthritis; format: in vivo, mouse; details: DS 2 mg/kg/bw; fraction 3 100 and 200 mg/kg/bw; oral once daily 20 days
Protocol: The experiment animals were adapted in a lab environment for 1 week and then the body weight was measured. Eight animals were assigned to each group to have even body weight. In the normal group, the physiological saline 6 was injected in the right knee joint and then the physiological saline 0.2 ml was orally administered once a day for 20 days. In the treated groups, i.e., a control group, a drug-administered group and a fraction 3-administered group, papain 6 was injected in the right knee joint to induce osteoarthritis. The physiological saline in the control group, Diclofenac sodium (DS, 2 mg/kg/bw) in the drug-administered group, and 100 mg/kg/bw {below, called “fraction 3 (100)”} and 200 mg/kg/bw {below, called “fraction 3 (200)”} in the fraction 3-administered group of Example 2 were orally administered once daily at a predetermined time for 20 days. All subjects were lightly anesthetized with ether at the experiment end day to take a heart blood sample. The blood was centrifuged to isolate a serum. […] The contents of tumor necrosis factor-α (TNF-α), interleukin-1β (IL-1β) and interleukin-6 (IL-6) were measured using enzyme-linked immunosorbent assay (ELISA) kit, respectively. The effect of fraction 3 of the inflammatory cytokine TNF-α produced in large quantities in animals where arthritis was induced by injection of papain, was measured by ELISA method.

[2] = test system: animal models of osteoarthritis C57BL/6J mouse; assay: Visual observation of knee joint cartilage surface in papain-induced osteoarthritis; format: in vivo; details: DS 2 mg/kg/bw; fraction 3 100 and 200 mg/kg/bw; oral once daily 20 days
Protocol: as §1, §2
The experiment animals were adapted in a lab environment for 1 week and then the body weight was measured. Eight animals were assigned to each group to have even body weight. In the normal group, the physiological saline 6 was injected in the right knee joint and then the physiological saline 0.2 ml was orally administered once a day for 20 days. […]

[3] = Papain + DS 2 mg/kg/bw oral once daily 20 days, group mean
[4] = Papain + DS 2 mg/kg/bw oral once daily 20 days, individual animals 1-8

O=C(O)Cc1ccccc1Nc1c(Cl)cccc1Cl [DS, Diclofenac sodium]
osteoarthritis index compared with the papain-administered control group ([1]; DS 2 mg/kg/bw, fraction 3 100 and 200 mg/kg/bw, oral once daily 20 days, p<0.05): significantly lower
Cellularity score, Mean [1, 3]: 2.0
Matrix structure score, Mean [1, 3]: 2.6
Subchondral bone score, Mean [1, 3]: 1.1
Synovial membrane score, Mean [1, 3]: 1.5
Sum of osteoarthric score, Mean ([1]; Papain + DS 2 mg/kg/bw oral once daily 20 days, group mean, papain control 19.8): 7.4
Cellularity score, per subject [1, 4]: 2
Matrix structure score, per subject [1, 4]: 1 (3×) and 3 (4×) and 6
Subchondral bone score, per subject [1, 4]: 3 (3×) and 0 (5×)
Sum of osteoarthric score, per subject [1, 4]: 6 (2×) and 4 and 11 (2×) and 5 and 8 (2×)
Synovial membrane score, per subject [1, 4]: 0 (3×) and 1 and 3 (4×)
IL-1β content in blood compared with papain-administrated control group (IL-1β): significantly lower
IL-6 content in blood compared with papain-administrated control group (IL-6): significantly lower
TNF-α content in blood compared with papain-administrated control group (TNF-α): significantly lower
visual appearance of knee joint cartilage surface compared with papain-administered group [2]: the scope of the discoloration was less and the elimination of visual cartilage surface was not observed
